Data taken from US20070021495A1, “SULFONAMIDES AS SELECTIVE ESTROGEN RECEPTOR” (priority 2005, published 2007).
Entries after “also recorded” stand apart in the source; their conditions may differ. Where two headings read alike, the source gives them in different places.

Columns and labels:
[1] = target: T1, purified full-length human ERbeta (Homo sapiens, UniProt Q92731); experiment: Competitive radiometric binding assay, relative binding affinity (RBA), ERbeta; conditions: for Relative binding affinity (RBA) ERβ: normalized to estradiol set at 100%, [3H]estradiol 10 nM tracer, 18-24 h at 0° C; for ERβ/ERα (ratio of RBAs): ratio of RBA ERβ to RBA ERα; for ER beta selectivity: binding selectivity ER beta over ER alpha
T1 construct: purified full-length human ERalpha and ERbeta receptors purchased from Pan Vera (Madison, Wis.); purchased Pan Vera (Madison, Wis.)
From the text: The relative binding affinities (RBAs) of potential ER ligands can be measured using purified full length human ERalpha and ERbeta receptors in a competitive radiometric binding assay, according to published procedures (Carlson, K. E.; Choi, I.; Gee, A,; Katzenellenbogen, B. S.; Katzenellenbogen, J. A. Altered ligand binding properties and enhanced stability of a constitutively active estrogen receptor: evidence that an open pocket conformation is required for ligand interaction. Biochemistry 1997, 36, 14897-14905; Katzenellenbogen, J. A.; Johnson, H. J., Jr.; Myers, H. N. Photoaffinity labels for estrogen binding proteins of rat uterus. Biochemistry 1973, 12, 4085-4092) as described in the Examples.
Relative binding affinities reported herein were determined by a competitive radiometric binding assay as previously described (Carlson, K. E.; Choi, I.; Gee, A.; Katzenellenbogen, B. S.; Katzenellenbogen, J. A. Altered ligand binding properties and enhanced stability of a constitutively active estrogen receptor: evidence that an open pocket conformation is required for ligand interaction. Biochemistry 1997, 36, 14897-14905; Katzenellenbogen, J. A.; Johnson, H. J., Jr.; Myers, H. N. Photoaffinity labels for estrogen binding proteins of rat uterus. Biochemistry 1973, 12, 4085-4092.) [3H]estradiol (10 nM) was used as tracer ([6,7-3H]estra-1,3,5,(10)triene-3,17-β-diol, 51-53 Ci/mmol, Amersham Biosciences, Piscataway, N.J.), and purified full-length human ERalpha and ERbeta receptors purchased from Pan Vera (Madison, Wis.). Incubations were for 18-24 h at 0° C. Hydroxyapatite (BioRad, Hercules, Calif.) was used to absorb the receptor-ligand complexes and free ligand was washed away. The binding affinities are expressed as relative binding affinity (RBA) values with the RBA of estradiol set to 100%. The values given are the average±range or SD of two to three independent determinations. […]

[2] = target: T2, purified full-length human ERalpha (Homo sapiens, UniProt P03372); experiment: Competitive radiometric binding assay, relative binding affinity (RBA), ERalpha; conditions: normalized to estradiol set at 100%; [3H]estradiol 10 nM tracer, 18-24 h at 0° C
T2 construct: purified full-length human ERalpha and ERbeta receptors purchased from Pan Vera (Madison, Wis.); purchased Pan Vera (Madison, Wis.)
T2 sequence (P03372 1-595): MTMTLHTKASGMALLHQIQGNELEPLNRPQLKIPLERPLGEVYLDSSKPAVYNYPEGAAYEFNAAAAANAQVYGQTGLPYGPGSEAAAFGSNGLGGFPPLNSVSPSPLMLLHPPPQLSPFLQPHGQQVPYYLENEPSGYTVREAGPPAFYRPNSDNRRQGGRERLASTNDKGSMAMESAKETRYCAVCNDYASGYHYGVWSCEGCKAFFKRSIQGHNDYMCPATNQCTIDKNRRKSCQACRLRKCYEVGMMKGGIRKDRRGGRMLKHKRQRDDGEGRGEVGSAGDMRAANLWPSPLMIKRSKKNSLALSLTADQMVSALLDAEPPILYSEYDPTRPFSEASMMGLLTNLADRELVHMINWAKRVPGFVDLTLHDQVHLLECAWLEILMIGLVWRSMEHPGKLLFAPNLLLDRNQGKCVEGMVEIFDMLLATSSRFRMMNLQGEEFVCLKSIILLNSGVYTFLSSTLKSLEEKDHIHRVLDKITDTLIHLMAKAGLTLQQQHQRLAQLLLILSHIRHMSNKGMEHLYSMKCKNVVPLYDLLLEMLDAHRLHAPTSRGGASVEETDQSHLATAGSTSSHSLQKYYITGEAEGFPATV
Procedure: Incubations were for 18-24 h at 0° C. Hydroxyapatite (BioRad, Hercules, Calif.) was used to absorb the receptor-ligand complexes and free ligand was washed away. […] The values given are the average±range or SD of two to three independent determinations.

ovariectomized mice = conditions: cited from earlier work
[3] = system: U2-OS cells stably expressing either ERα or ERβ; experiment: Endogenous gene expression (cystatin D, GREB1 mRNA, quantitative PCR) in U2-OS cells stably expressing ERα or ERβ; conditions: 24 hours, mRNA by quantitative PCR
Procedure: Expression levels of cystatin D (A and B) or of GREB1 (C and D) mRNA were determined by quantitative PCR methods.
More specifically real-time PCR was carried out on the indicated genes to evaluate mRNA levels of ER alpha or ER beta in U2-OS stably transfected cells. […] One microgram of total RNA from each sample was reverse transcribed in a total volume of 20 μl using 200 U reverse transcriptase, 50 pmol random hexamers, and 1 mM deoxynucleotide triphosphates (New England Biolabs, Beverly, Mass.). The resulting cDNA was then diluted to a total volume of 100 μl. Each real-time PCR consisted of 5 μl of diluted reverse transcription product, 1× SYBR Green PCR Master Mix (Applied Biosystems, Foster City, Calif.), and 50 nM of forward and reverse primers. Reactions were carried out in an ABI Prism 7700 Sequence Detection System (Applied Biosystems) for 40 cycles (95 C for 15 sec, 60 C for 1 min) after an initial 10-min incubation at 95 C. The FC in expression was calculated using the DDCt comparative threshold cycle method with the ribosomal protein 36B4 mRNA as an internal control. Gene expression is normalized to an endogenous reference gene (36B4) and the FC in gene expression is then determined relative to the vehicle-treated control.

ERβ = ERβ (Homo sapiens, UniProt Q92731); experiment: Antagonism of estrogen-induced 2x-pS2-ERE-Luc reporter expression in HEC-1 cells transfected with ERβ; conditions: ligand + E2 at 1 nM, 24 hours, luciferase, pS2 promoter
Procedure: (§1) Values are expressed as % of E2 activity at 1 nM and are the mean of duplicate determinations.
(§2) The data presented was measured using a reporter gene under the control of the pS2 promoter. […] Human endometrial cancer (HEC-1) cells were maintained in minimum essential medium (MEM) plus phenol red supplemented with 5% calf serum and 5% fetal calf serum. […] The cells were incubated at 37° C. in a 5% CO2-containing incubator for 5 h. The medium was then replaced with fresh improved MEM supplemented with 5% CDCS plus the desired concentrations of ligand. Cells were harvested 24 h later.

ERα = target: T3, ERα (Homo sapiens, UniProt P03372); experiment: Antagonism of estrogen-induced 2x-pS2-ERE-Luc reporter expression in HEC-1 cells transfected with ERα; conditions: ligand + E2 at 1 nM, 24 hours, luciferase, pS2 promoter
T3 sequence (P03372 1-595): T2 sequence (P03372 1-595)
Procedure: as §1, §2

Candida albicans = conditions: cited from earlier work

Chain of ERβ (Q92731 whole entry, species assumed): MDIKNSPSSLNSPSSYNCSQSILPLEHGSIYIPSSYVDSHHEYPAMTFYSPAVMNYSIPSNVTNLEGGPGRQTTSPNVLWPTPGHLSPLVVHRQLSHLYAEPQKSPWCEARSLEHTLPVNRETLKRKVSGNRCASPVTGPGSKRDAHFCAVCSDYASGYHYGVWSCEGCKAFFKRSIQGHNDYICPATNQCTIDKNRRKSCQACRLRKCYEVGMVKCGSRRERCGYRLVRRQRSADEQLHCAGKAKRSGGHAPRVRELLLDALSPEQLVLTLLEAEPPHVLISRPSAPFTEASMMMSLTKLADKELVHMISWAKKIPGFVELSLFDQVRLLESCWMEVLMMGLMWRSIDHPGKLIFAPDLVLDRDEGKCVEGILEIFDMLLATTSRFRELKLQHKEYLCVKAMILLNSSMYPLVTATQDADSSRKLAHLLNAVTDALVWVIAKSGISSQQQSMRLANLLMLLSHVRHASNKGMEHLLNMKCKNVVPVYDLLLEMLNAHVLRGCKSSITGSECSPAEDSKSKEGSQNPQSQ
T1 sequence (Q92731 whole entry): as the sequence (Q92731 whole entry, species assumed) above

Relative binding affinity (RBA) ERβ [1] | ERβ/ERα (ratio of RBAs) [1] | Relative binding affinity (RBA) ERα [2] | Structure (SMILES) | other results
0.023% | 7.7 | 0.003% | O=S(=O)(c1ccc(O)cc1)N(CCC(F)(F)F)c1ccc(O)c(Cl)c1 [Compound 28b, N-(3-Chloro-4-hydroxy-phenyl)-4-hydroxy-N-(3,3,3-trifluoro-propyl)-benzenesulfonamide] | 
0.038% | 7.6 | 0.005% | CCCN(c1ccc(O)c(Cl)c1)S(=O)(=O)c1ccc(O)cc1 [Compound 24b, N-(3-Chloro-4-hydroxy-phenyl)-4-hydroxy-N-propyl-benzenesulfonamide] | 
0.11% | 6.1 | 0.018% | CCC(CC)N(c1ccc(O)cc1)S(=O)(=O)c1ccc(O)cc1 [Compound 20j, N-(1-Ethyl-propyl)-4-hydroxy-N-(4-hydroxy-phenyl)-benzenesulfonamide] | 
0.178% | 20 | 0.009% | O=S(=O)(c1ccc(O)cc1)N(CCC(F)(F)F)c1ccc(O)c(F)c1 [Compound 28a, N-(3-Fluoro-4-hydroxy-phenyl)-4-hydroxy-N-(3,3,3-trifluoro-propyl)-benzenesulfonamide] | 
0.17% | 8.5 | 0.020% | O=S(=O)(c1ccc(O)cc1)N(CC(F)(F)F)c1ccc(O)cc1 [Compound 20k, 4-Hydroxy-N-(4-hydroxy-phenyl)-N-(2,2,2-trifluoro-ethyl)-benzenesulfonamide] | 
0.254% | 23 | 0.011% | CCCN(c1ccc(O)c(F)c1)S(=O)(=O)c1ccc(O)cc1 [Compound 24a, N-(3-Fluoro-4-hydroxy-phenyl)-4-hydroxy-N-propyl-benzenesulfonamide] | 
1.27% | 212 | 0.006% | O=S(=O)(c1ccc(O)cc1)N(CCC(F)(F)F)c1ccc(O)cc1 [Compound 20l, 4-Hydroxy-N-(4-hydroxy-phenyl)-N-(3,3,3-trifluoro-propyl)benzenesulfonamide] | Potency in endogenous gene regulation compared to the dose response of estradiol [3]: preferential potency through ERbeta; Regulation of endogenous genes (cystatin D and GREB1) [3]: preferential regulation through ERbeta; Antagonism on estrogen-induced gene expression through ERβ (ERβ; listed as FS-5): do not act as antagonists; also recorded: lack of antagonism; ER beta selectivity [1]: 212 fold; Antagonism on estrogen-induced gene expression through ERα (ERα; listed as FS-5): do not act as antagonists; also recorded: lack of antagonism
1.3% | 100 | 0.013% | CCCC(C)N(c1ccc(O)cc1)S(=O)(=O)c1ccc(O)cc1 (centres unmarked) [Compound 20i, 4-Hydroxy-N-(4-hydroxy-phenyl)-N-(1-methyl-butyl)-benzenesulfonamide] | 

The next lines start with the compound.

Structure (SMILES) | Relative binding affinity (RBA) ERβ [1] | ERβ/ERα (ratio of RBAs) [1] | Relative binding affinity (RBA) ERα [2] | other results
COc1ccc(S(=O)(=O)N(c2ccccc2)c2ccccc2)cc1 [compound VIII] |  |  |  | percentage of animals which responded (ovariectomized mice; dose 250 micrograms): 60%
CCCN(c1ccc(O)cc1)S(=O)(=O)c1ccc(O)cc1 [Compound 20c, 4-Hydroxy-N-(4-hydroxy-phenyl)-N-propyl-benzenesulfonamide] | 2.56% | 98 | 0.026% | Potency in endogenous gene regulation compared to the dose response of estradiol [3]: preferential potency through ERbeta; Regulation of endogenous genes (cystatin D and GREB1) [3]: preferential regulation through ERbeta; Antagonism on estrogen-induced gene expression through ERβ (ERβ; listed as FS-2): do not act as antagonists; also recorded: lack of antagonism; ER beta selectivity [1]: 98 fold; Antagonism on estrogen-induced gene expression through ERα (ERα; listed as FS-2): do not act as antagonists; also recorded: lack of antagonism
CC(C)N(c1ccc(O)cc1)S(=O)(=O)c1ccc(O)cc1 [Compound 20g, N-Isopropyl-4-hydroxy-N-(4-hydroxy-phenyl)-benzenesulfonamide] | 0.22% | 18 | 0.012% | 
CCN(c1ccc(O)cc1)S(=O)(=O)c1ccc(O)cc1 [Compound 20b, N-Ethyl-4-hydroxy-N-(4-hydroxy-phenyl)-benzenesulfonamide] | 0.28% | 40 | 0.007% | 
CCCCCN(c1ccc(O)cc1)S(=O)(=O)c1ccc(O)cc1 [Compound 20f, 4-Hydroxy-N-(4-hydroxy-phenyl)-N-pentyl-benzenesulfonamide] | 0.60% | 13 | 0.047% | 
CCCCN(c1ccc(O)cc1)S(=O)(=O)c1ccc(O)cc1 [Compound 20d, N-Butyl-4-hydroxy-N-(4-hydroxy-phenyl)-benzenesulfonamide] | 1.15% | 50 | 0.023% | 
CN(c1ccc(O)cc1)S(=O)(=O)c1ccc(O)cc1 [Compound 20a, 4-Hydroxy-N-(4-hydroxy-phenyl)-N-methyl-benzenesulfonamide] | 0.058% | 6.4 | 0.009% | 
CCC(C)N(c1ccc(O)cc1)S(=O)(=O)c1ccc(O)cc1 (racemic) [Compound 20h (Racemic), N-sec-Butyl-4-hydroxy-N-(4-hydroxy-phenyl)-benzenesulfonamide] | 0.97% | 162 | 0.006% | ER beta selectivity [1]: 162 fold
CC(C)CN(c1ccc(O)cc1)S(=O)(=O)c1ccc(O)cc1 [Compound 20e, N-Isobutyl-4-hydroxy-N-(4-hydroxy-phenyl)-benzenesulfonamide] | 0.14% | 11 | 0.013% | 
COc1ccc(NS(=O)(=O)c2ccc(OC)cc2)cc1 [compound II, p-methoxybenzenesulfon-p-anisidide] |  |  |  | percentage of animals which responded (ovariectomized mice; dose 50 micrograms): 100%; Activity against Candida albicans (Candida albicans): some activity
